Values after ≈ are worked out from the molar mass of the structure shown. Values joined by “and” are separate entries in the source; they are usually repeats but may differ in a detail not shown here. Equal entries are not always repeated. Marks after values point to notes of the source that are not given here.
Key:
[1] = Comparative bioavailability study in the dog; type: in vivo
Excerpt: The potential benefit of improved water solubility on the absorption of these open-ring analogues was shown in a comparative bioavailability study in the dog. Using the unsubstituted ethyl-5,6-dichloro-3,4-dihydro-2-(1H)-iminoquinazoline-3-acetate HBr as a model compound, a comparison was made of the systemic availability of anagrelide when given as this compound or as anagrelide itself in equimolar doses ([…]).

[2] = Conversion of ring open prodrug to anagrelide in human plasma (LC/MS-MS); type: in vitro ADME; settings: human plasma spiked 100 ng/mL, room temperature, first point of measurement (immediately after mixing)
Method: Such prodrugs are likely to be extremely rapidly and completely cyclised in plasma to the closed ring 3-alkylanagrelide analogues. […] Human plasma was spiked with anagrelide prodrug (final concentration 100 ng/mL). Immediately after mixing, and at 15, 30, 45 and 60 minutes afterward samples were analysed for anagrelide prodrug and anagrelide.

PDEIII = PDEIII inhibition; type: biochemical; settings: more potent than anagrelide itself
Solubility = type: physicochemical
[3] = male dogs, single oral (capsule), anagrelide 6.1 mg/kg or ester prodrug 7.5 mg/kg, individual dogs, listed as Ester prodrug of anagrelide, HBr
[4] = male dogs, single oral (capsule), anagrelide 6.1 mg/kg or ester prodrug 7.5 mg/kg, median
[5] = male dogs, single oral (capsule), anagrelide 6.1 mg/kg or ester prodrug 7.5 mg/kg, individual dogs

In the case of Br.CCOC(=O)CN1Cc2c(ccc(Cl)c2Cl)NC1=N [ethyl-5,6-dichloro-3,4-dihydro-2-(1H)-iminoquinazoline-3-acetate HBr], the “Cmax for anagrelide, range over dogs” value ([1]; dog, oral, equimolar doses) is reported as 170-418 ngmL^−1, the “t½ of 3-hydroxy anagrelide, calculated as ln2/(mean rate constant)” value ([1]; male dogs, single oral (capsule), anagrelide 6.1 mg/kg or ester prodrug 7.5 mg/kg) is reported as 2.1 ^e hours and the “AUCinfin of 3-hydroxy anagrelide” value [1, 3] is reported as 1290 ^c ng · h/mL. For the same molecule, the AUCinfin of anagrelide [1, 3] was 1440 ^d ng · h/mL, the “k of 3-hydroxy anagrelide” value [1, 3] was 0.1235 ^c hours^−1 and the k of anagrelide [1, 3] was 0.1789 ^d hours^−1. The “t½ of 3-hydroxy anagrelide” value [1, 3] was 5.6 ^c hours, the t½ of anagrelide [1, 3] was 3.9 ^d hours and the “Tmax of 3-hydroxy anagrelide, median” value [1, 4] was 3.5 ^b hours. The “Tmax of anagrelide, median” value [1, 4] was 3.5 ^b hours, the “t½ of anagrelide, calculated as ln2/(mean rate constant)” value ([1]; male dogs, single oral (capsule), ester prodrug 7.5 mg/kg) was 1.8 ^f hours and the “prodrug remaining in human plasma (conversion to anagrelide)” value [2] was “no prodrug could be found”.

For O=C1NC2=Nc3ccc(Cl)c(Cl)c3CN2C1O (stereo not drawn) [3-hydroxyanagrelide], the “potency as an inhibitor of PDEIII relative to anagrelide” value (PDEIII) was about 40 fold.

With O=C1CN2Cc3c(ccc(Cl)c3Cl)N=C2N1 [anagrelide, 6,7-dichloro-1,5-dihydroimidazo[2,1-b]-quinazolin-2(3H)-one] the Tmax of anagrelide [1, 5] was 2 h, the k of anagrelide [1, 5] was 0.4459 ^c hours^−1 and 0.3119 ^c hours^−1 and 0.1953 ^d hours^−1 and the solubility (Solubility; aqueous solution, aqueous buffer, at pH 11.4) was about 1 mg/mL (≈ 3900 µM). It also gave a solubility (Solubility; aqueous solution, aqueous buffer, pH range of 4-8) of under 0.01 mg/mL and a solubility (Solubility; simulated gastric fluid, in 0.1M HCl) of about 0.17 mg/mL (≈ 664 µM).

Reference: patent US20110130413A1, “SUBSTITUTED QUINAZOLINES” (Shire LLC, priority 2008, published 2011)
